Data from patent US20060165785A1, “Method of chemically stabilizing pharmaceutical formulations with cholesterol” (priority 2005, published 2006).

Experiment: Chemical stability of composite particles in lactose carrier blend stored at 60° C. and 75% relative humidity for seven days
Assay type: physicochemical
Protocol: A 20 gram blend of 5% cholesterol coated salmeterol particles was prepared with a concetration of 0.8% w/w salmeterol base in alpha lactose monohydrate. Approximately 10 grams of alpha lactose monohydrate with target particle size of 65-85μm (Borcula, The Netherlands) was weighed into the bottom of a 120 mL amber glass jar. 0.247g of 5% cholesterol coated salmeterol HNA was added on top of the lactose and 9.77 g of lactose was added on top of the mixture. The mixture was blended using a Turbula T2F blender at 96 RPM for 5 minutes. The jar was removed from the blender and excess blend was tapped from the top of the jar. One additional blending cycle was performed for 5 minutes at 96 RPM to complete the process.
Samples of particles prepared in accordance with Example 2 above were stored in controlled atmospheric conditions of 60° C. and 75% relative humidity for seven days. The percentage of active ingredient was taken at day 0 and day 7. […] When cholesterol was included, the degradation was reduced to less than 2%.
It has been observed that micronized SX degrades at 60 ° C. and 75% relative humidity (RH) conditions when in a neat blend with lactose.

Row | % Impurities of Composite Particles in 0.4% GW597901M Base/Lactose Blend, 7 Days at 60° C. and 75% RH (0.4% GW597901M base/lactose blend, 7 days at 60° C. and 75% RH) [%] | % Impurities of Composite Particles in 0.4% GW597901M Base/Lactose Blend, Initial (0.4% GW597901M base/lactose blend, initial) [%] | % Impurities of Composite Particles in 0.8% Salmeterol Base/Lactose Blend, 7 Days at 60° C. and 75% RH (0.8% salmeterol base/lactose blend, 7 days at 60° C. and 75% RH) [%] | % Impurities of Composite Particles in 0.8% Salmeterol Base/Lactose Blend, 7 Days at 60° C. and 75% RH (0.8% salmeterol base/lactose blend, 7 days at 60° C. and 75% RH, listed as MIC SX from alternate study) [%] | % Impurities of Composite Particles in 0.8% Salmeterol Base/Lactose Blend, Initial (0.8% salmeterol base/lactose blend, initial (day 0)) [%] | drop in the amount of SX present in the formulation (degradation) at day 7 (formulation with carrier, 60° C. and 75% relative humidity, day 7 vs day 0) [%] | Compound
1 | 10.0 | 3.9 | – | – | – | – | NS(=O)(=O)c1cccc(CCCCOCCCCCCNC[C@H](O)c2ccc(O)c(CO)c2)c1 [Micronized GW597901M, 3-(4-{[6-({(2R)-2-hydroxy-2-[4-hydroxy-3-(hydroxymethyl)phenyl]ethyl}amino)hexyl]oxy}-butyl)benzene-sulfonamide]
2 | – | – | 7.4 | 8.0 | 0.5 | 7 | OCc1cc(C(O)CNCCCCCCOCCCCc2ccccc2)ccc1O (stereo not drawn) [Micronized SX, salmeterol xinafoate]
